The target of test [1] is T1, Protein kinase C iota type (Homo sapiens) (UniProt P41743).
T1 sequence (whole entry): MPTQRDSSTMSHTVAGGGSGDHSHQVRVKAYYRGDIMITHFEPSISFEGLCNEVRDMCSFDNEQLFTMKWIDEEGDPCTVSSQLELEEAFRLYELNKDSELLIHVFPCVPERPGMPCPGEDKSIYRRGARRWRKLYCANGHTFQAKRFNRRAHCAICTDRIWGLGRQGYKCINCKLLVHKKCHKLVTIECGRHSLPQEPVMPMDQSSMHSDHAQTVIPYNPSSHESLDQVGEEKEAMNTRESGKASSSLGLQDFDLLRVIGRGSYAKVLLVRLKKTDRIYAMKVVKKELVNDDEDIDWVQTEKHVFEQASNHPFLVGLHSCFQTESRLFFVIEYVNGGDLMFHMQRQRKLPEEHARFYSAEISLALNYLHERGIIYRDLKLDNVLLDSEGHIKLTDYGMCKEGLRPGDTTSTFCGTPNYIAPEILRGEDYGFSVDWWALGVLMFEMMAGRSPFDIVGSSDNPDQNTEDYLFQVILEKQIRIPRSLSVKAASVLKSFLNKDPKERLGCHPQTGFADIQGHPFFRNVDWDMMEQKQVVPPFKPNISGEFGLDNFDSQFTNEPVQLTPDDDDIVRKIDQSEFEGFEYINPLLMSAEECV
Description: Selectivity interaction (Kinase panel (Z-LYTE Assay)) EUB0001632a PRKCI. Conditions: at 10 µM.

Test [2] addresses Receptor tyrosine-protein kinase erbB-2 (Homo sapiens, UniProt P04626). The conditions noted are these: at 10 µM.
Test [3] deals with T2, Ribosomal protein S6 kinase alpha-3 (Homo sapiens, UniProt P51812). Put plainly: Selectivity interaction (ActivX KiNativ screen (ex vivo kinase selectivity in human PBMCs)) EUB0001619a RPS6KA3. The test is classed as cell-based. The conditions noted are these: PBMC, at 1 µM.
Test [4] addresses T3, NUAK family SNF1-like kinase 2 (Homo sapiens) (UniProt Q9H093).
T3 sequence (whole entry): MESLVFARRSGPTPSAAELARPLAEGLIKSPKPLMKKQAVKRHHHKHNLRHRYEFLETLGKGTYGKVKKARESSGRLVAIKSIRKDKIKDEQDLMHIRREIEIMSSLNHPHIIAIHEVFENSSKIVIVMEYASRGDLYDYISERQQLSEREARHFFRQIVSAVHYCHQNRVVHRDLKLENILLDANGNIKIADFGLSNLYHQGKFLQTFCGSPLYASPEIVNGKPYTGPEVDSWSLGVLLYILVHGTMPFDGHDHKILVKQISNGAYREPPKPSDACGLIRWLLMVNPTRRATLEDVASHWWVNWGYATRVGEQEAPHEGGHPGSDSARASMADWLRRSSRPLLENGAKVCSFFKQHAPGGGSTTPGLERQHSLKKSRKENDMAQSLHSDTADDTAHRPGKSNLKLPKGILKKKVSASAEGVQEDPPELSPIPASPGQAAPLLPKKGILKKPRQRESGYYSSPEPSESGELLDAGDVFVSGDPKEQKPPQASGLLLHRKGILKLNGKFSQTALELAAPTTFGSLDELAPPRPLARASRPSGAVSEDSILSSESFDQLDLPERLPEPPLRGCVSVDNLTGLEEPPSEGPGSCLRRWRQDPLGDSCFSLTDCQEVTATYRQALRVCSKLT
Conditions: at 10 µM.

For test [5], the target named is T4, Serine/threonine-protein kinase RIO3 (Homo sapiens) (UniProt O14730).
T4 sequence (whole entry): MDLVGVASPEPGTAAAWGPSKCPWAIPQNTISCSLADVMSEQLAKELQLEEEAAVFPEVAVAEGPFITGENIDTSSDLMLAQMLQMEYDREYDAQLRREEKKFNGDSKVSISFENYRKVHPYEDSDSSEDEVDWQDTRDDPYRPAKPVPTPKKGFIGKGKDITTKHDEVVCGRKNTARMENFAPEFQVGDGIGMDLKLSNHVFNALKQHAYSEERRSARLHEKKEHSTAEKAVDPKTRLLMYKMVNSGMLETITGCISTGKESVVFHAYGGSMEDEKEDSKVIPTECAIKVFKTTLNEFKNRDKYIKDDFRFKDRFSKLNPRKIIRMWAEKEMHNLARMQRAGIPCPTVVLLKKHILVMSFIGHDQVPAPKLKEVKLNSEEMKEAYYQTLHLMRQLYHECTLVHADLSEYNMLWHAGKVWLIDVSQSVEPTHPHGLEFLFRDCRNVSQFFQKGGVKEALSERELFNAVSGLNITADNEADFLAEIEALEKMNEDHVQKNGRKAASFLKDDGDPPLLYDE
Description: Selectivity interaction (KinomeScan (DiscoverX)) EUB0000607a RIOK3. Conditions: at 10 µM.

Test [6] deals with T2, Ribosomal protein S6 kinase alpha-3. Put plainly: Selectivity interaction (SelectScreen profiling (Invitrogen)) EUB0000607a RPS6KA3. The conditions noted are these: at 2 µM.
Test [7] has as its target Serine/threonine-protein kinase PLK2 (Homo sapiens, UniProt Q9NYY3). The conditions noted are these: at 10 µM.
Test [8] has as its target RAF proto-oncogene serine/threonine-protein kinase (Homo sapiens) (UniProt P04049). Put plainly: Selectivity interaction (Kinase screening (Upstate/Millipore)) EUB0000604a RAF1.
In test [9] the target is Epidermal growth factor receptor (Homo sapiens, UniProt P00533). Put plainly: Selectivity interaction (Kinase panel (Invitrogen)) EUB0000639a EGFR. Conditions: at 200 nM.
The target of test [10] is Tyrosine-protein kinase Fyn (Homo sapiens) (UniProt P06241). Put plainly: Selectivity interaction (ActivX KiNativ screen (kinase selectivity in THP-1 cell lysates)) EUB0000639a FYN. It counts as subcellular. Conditions: lysate, at 1 µM.
Test [11] has as its target T1, Protein kinase C iota type (Homo sapiens). Put plainly: Selectivity interaction (ActivX KiNativ screen (kinase selectivity in THP-1 cell lysates)) EUB0000639a PRKCI. The test is classed as subcellular. The conditions noted are these: lysate.
The target of test [12] is Serine/threonine-protein kinase 10 (Homo sapiens) (UniProt O94804). Description: Selectivity interaction (KinomeScan (DiscoverX)) EUB0000045b STK10.
Test [13] concerns the target Calcium/calmodulin-dependent protein kinase type II subunit beta (Homo sapiens) (UniProt Q13554). Description: Selectivity interaction (KinomeScan (DiscoverX)) EUB0001049a CAMK2B. The conditions noted are these: at 1 µM.
The target of test [14] is Serine/threonine-protein kinase 24 (Homo sapiens) (UniProt Q9Y6E0). Put plainly: Selectivity interaction (KinomeScan (DiscoverX)) EUB0001049a STK24. The conditions noted are these: at 1 µM.
The target in test [15] is Fibroblast growth factor receptor 1 (Homo sapiens, UniProt P11362). Put plainly: Selectivity interaction (Kinase panel (DSF assay)) EUB0001558a FGFR1. On the technique in general: DSF heats the sample and reads unfolding from a dye or from intrinsic fluorescence.
Test [16] concerns the target Interferon-induced, double-stranded RNA-activated protein kinase (Homo sapiens) (UniProt P19525). Description: Selectivity interaction (Kinase panel (KiNativ target engagement assay in Jurkat cells)) EUB0001635a EIF2AK2. The test is classed as cell-based. The conditions noted are these: Selectivity number of off-targets 0.0, Selectivity number of targets 233.0, Source Knowledge https://www.sciencedirect.com/science/article/pii/S2451945619300674?via%3Dihub, at 1 µM.

Results on twelve compounds are retold here after ChEMBL document CHEMBL5465560, “Selectivity Literature for EUbOPEN Chemogenomic Library” (2024).

Structures are written as SMILES.

T2 sequence (P51812 whole entry): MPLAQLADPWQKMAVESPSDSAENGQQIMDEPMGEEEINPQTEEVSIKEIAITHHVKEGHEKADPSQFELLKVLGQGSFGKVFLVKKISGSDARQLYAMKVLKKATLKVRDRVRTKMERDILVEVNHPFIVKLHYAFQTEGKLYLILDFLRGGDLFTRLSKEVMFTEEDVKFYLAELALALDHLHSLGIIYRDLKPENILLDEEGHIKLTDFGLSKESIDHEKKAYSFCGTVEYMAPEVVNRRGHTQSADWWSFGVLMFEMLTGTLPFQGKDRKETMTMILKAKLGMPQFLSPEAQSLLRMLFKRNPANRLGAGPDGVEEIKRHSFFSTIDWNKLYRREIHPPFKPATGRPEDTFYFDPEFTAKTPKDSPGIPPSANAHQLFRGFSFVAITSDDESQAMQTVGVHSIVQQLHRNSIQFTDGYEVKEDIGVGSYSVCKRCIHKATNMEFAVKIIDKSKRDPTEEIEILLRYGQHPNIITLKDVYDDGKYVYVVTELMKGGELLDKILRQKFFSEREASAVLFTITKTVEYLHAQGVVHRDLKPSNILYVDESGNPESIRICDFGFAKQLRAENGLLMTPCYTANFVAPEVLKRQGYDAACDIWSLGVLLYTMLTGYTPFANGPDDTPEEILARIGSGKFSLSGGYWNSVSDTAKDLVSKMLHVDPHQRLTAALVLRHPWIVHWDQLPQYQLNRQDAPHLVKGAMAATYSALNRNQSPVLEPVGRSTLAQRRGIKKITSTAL
Sequence of Serine/threonine-protein kinase 10 (Homo sapiens) (O94804 whole entry, looked up): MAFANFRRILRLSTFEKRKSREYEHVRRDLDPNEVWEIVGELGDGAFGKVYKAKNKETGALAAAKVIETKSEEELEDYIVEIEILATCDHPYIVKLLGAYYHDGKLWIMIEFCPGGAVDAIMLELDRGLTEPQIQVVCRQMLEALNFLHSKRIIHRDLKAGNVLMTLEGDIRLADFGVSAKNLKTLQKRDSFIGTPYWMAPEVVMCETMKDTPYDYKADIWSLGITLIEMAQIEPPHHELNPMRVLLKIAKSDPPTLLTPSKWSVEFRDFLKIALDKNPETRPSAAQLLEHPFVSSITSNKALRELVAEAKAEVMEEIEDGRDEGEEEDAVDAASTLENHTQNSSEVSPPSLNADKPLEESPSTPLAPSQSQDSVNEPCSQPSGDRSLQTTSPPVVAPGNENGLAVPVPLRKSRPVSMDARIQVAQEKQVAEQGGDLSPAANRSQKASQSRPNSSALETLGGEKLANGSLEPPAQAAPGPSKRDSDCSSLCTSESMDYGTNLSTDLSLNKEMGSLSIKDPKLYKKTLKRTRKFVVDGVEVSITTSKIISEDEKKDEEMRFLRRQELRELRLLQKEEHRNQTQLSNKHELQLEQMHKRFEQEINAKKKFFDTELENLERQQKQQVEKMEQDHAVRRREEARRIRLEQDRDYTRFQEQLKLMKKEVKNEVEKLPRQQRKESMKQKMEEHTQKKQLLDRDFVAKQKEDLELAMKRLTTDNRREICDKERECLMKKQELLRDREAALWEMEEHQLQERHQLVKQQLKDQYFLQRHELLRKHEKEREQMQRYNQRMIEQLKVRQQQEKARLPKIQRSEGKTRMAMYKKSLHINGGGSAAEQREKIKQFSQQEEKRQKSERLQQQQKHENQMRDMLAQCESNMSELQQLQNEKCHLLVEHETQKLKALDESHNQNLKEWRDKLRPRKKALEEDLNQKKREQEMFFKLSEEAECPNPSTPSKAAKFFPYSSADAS
Sequence of Serine/threonine-protein kinase PLK2 (Q9NYY3 whole entry, looked up): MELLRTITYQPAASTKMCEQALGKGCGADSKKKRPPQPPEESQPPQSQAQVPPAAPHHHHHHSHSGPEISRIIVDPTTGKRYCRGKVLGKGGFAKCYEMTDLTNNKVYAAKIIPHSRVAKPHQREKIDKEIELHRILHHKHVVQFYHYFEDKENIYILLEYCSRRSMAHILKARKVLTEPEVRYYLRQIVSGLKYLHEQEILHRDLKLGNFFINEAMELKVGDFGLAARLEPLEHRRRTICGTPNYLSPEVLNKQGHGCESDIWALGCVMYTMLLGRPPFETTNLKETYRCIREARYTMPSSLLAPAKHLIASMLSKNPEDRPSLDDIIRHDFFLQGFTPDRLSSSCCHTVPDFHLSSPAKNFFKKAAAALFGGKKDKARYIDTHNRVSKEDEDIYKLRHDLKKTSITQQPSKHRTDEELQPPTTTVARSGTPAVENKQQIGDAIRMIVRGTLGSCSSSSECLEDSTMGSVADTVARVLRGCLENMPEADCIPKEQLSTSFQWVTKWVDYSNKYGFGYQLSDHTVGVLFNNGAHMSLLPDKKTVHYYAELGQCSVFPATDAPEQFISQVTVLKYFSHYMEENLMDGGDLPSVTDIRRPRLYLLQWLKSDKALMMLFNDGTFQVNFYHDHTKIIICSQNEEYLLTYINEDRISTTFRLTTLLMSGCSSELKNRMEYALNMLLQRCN
Sequence of RAF proto-oncogene serine/threonine-protein kinase (Homo sapiens) (P04049 whole entry): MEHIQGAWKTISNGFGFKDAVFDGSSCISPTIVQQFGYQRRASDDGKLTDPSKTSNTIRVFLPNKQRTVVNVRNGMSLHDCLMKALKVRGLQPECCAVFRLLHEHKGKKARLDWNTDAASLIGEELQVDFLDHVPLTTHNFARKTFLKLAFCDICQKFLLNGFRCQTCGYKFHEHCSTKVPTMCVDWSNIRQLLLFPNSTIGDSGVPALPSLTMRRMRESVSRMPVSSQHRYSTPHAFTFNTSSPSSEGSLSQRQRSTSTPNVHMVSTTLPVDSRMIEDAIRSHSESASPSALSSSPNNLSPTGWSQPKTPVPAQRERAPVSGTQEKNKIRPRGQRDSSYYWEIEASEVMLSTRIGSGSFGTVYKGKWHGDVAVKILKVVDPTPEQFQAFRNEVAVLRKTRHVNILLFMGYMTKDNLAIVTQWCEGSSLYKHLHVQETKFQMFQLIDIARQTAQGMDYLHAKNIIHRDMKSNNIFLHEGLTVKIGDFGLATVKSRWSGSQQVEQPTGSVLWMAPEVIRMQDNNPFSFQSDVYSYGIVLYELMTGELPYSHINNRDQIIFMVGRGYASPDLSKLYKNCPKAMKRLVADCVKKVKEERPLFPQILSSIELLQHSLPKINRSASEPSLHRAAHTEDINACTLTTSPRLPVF
Sequence of Interferon-induced, double-stranded RNA-activated protein kinase (Homo sapiens) (P19525 whole entry): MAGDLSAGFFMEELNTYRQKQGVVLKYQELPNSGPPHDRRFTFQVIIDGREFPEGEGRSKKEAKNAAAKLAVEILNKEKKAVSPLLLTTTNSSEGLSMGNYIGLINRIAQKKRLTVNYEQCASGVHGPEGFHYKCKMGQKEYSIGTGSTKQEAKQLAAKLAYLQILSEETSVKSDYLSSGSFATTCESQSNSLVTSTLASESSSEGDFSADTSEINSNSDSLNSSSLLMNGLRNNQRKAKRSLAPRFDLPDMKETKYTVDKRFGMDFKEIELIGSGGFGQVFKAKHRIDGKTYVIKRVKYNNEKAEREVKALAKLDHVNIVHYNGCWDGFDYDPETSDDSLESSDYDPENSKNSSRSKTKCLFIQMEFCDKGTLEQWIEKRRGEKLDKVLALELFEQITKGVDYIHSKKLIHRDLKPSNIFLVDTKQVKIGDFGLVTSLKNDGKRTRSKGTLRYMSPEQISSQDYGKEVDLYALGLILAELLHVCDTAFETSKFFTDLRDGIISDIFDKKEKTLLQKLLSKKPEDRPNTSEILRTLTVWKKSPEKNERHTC
Sequence of Tyrosine-protein kinase Fyn (Homo sapiens) (P06241 2-537 limits assumed): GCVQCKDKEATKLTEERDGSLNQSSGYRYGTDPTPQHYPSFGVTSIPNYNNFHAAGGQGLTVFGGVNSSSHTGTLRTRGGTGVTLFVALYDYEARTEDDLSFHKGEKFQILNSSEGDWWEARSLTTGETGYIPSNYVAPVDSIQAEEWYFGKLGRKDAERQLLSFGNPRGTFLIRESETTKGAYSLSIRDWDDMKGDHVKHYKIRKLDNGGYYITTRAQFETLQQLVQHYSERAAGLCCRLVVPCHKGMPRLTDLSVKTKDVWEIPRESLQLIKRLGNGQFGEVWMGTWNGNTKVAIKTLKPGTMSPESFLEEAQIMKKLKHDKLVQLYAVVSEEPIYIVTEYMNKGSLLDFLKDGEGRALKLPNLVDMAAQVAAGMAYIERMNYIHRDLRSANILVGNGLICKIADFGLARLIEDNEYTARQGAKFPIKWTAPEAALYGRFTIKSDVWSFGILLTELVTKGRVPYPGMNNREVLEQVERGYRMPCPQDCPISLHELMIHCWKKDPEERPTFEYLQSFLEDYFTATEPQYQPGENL
Sequence of Fibroblast growth factor receptor 1 (P11362 22-822 limits assumed): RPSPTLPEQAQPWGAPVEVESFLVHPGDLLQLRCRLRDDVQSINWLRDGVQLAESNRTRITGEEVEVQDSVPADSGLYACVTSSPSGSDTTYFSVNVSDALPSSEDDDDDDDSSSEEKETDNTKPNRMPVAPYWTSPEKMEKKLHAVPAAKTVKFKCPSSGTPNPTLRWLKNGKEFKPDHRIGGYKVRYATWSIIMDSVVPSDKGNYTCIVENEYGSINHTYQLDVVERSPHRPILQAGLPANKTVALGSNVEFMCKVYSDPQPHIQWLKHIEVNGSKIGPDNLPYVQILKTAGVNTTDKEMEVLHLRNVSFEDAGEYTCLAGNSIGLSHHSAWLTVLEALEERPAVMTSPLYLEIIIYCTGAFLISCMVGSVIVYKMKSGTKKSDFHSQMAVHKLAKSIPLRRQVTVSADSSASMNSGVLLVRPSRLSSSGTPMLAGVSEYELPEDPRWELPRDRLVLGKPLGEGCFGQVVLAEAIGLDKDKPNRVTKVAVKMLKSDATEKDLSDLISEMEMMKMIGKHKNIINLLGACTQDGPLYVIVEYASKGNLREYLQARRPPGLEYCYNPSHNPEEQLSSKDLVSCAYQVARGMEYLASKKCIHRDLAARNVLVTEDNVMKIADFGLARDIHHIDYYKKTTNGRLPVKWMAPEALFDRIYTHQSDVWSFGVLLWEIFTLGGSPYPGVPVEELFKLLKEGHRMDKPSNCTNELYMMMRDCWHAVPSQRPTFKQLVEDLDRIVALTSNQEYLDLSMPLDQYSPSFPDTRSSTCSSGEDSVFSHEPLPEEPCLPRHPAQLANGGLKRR

In test [1], `Cn1cc(-n2cnc3c(NCc4nc5cc(Cl)c(Cl)cc5[nH]4)nc(N4CCOCC4)nc32)cn1` showed a % of control of 8.02%.

In test [2], `COCC(=O)NC/C=C/c1ccc2ncnc(Nc3ccc(Oc4ccc(C)nc4)c(C)c3)c2c1` [CP-724714] yielded a % of control of 0%.

Take `N#Cc1cccc(-c2c[nH]c3ncnc(N4CCOCC4)c23)c1`: the % of inhibition in test [3] was -3%.

Regarding `CCN(CC)CCCCNc1ncc2cc(-c3cc(OC)cc(OC)c3)c(NC(=O)NC(C)(C)C)nc2n1`, in test [4], the % of control worked out at 100%.

In the case of `CNC(=O)Nc1ccc(-c2nc(N3CC4CCC(C3)O4)c3cnn(C4CCC5(CC4)OCCO5)c3n2)cc1`, the % of control in test [5] is 100%. The % of inhibition in test [6] is -2%.

`Cc1cc([C@@H](C)Nc2ccccc2C(=O)O)c2nc(N3CCOCC3)cc(=O)n2c1` [AZD-6482]: the % of control in [7] turned out to be 99%.

For the compound `Cc1cnc(Nc2ccc(F)cc2Cl)nc1-c1c[nH]c(C(=O)N[C@H](CO)c2cccc(Cl)c2)c1`, the % of inhibition in [8] is 3%.

As for `CC[C@@H]1[C@H](F)C(=O)N[C@@H]1COc1nccc2cc(C(N)=O)c(OC)cc12` [ZIMLOVISERTIB], the % of inhibition in [9] was 3.43%; in [10] it was -11%; in test [11] (at 0.01 µM) it was 8.5%; in [11] (at 0.04 µM), -2.3%; in test [11] (at 0.2 µM), -7.6%; in [11] (at 1 µM), 6.9%. Also, the % of inhibition in [11] (at 5 µM) was -26.2%.

For the compound `C=CC(=O)Nc1cc(-n2c(=O)ccc3cnc4ccc(-c5ccc(NS(C)(=O)=O)cc5)cc4c32)ccc1C`, the % of control came out at 87% in test [12] (at 1 µM) and 100% in test [12] (at 10 µM).

With `COc1cc(Nc2nc(C)cc(-c3cnn4nc(OC)ccc34)n2)cc(C(F)(F)F)c1`, the % of control came to 93% in test [13] and 76% in [14].

With `CC(C)(O)[C@H](F)CN1Cc2cc(NC(=O)c3cnn4cccnc34)c(N3CCOCC3)cc2C1=O`, the dTM in [15] was 1.1 K.

For the compound `C=CC(=O)Nc1ccc(C(=O)Nc2[nH]nc3c2CN(C(=O)N[C@H](CN(C)C)c2ccccc2)C3(C)C)cc1`, in test [16], the % of engagement is -5.3%.
